# Results reported in PMC12373846, “Hemoglobin as a pseudoperoxidase and drug target for oxidative stress-related diseases” (Signal Transduction and Targeted Therapy, 2025).
# “And” between values parts separate entries of the source, which are not always exact repeats. Identical values can stand only once. Like-named read-outs stand apart in the source and are kept apart here.
# Legend:
# Assay in all cases: SafetyScreen87 panel
# [1] = molecular target: T1, 5-HT transporter (h) (antagonist radioligand) (Homo sapiens, UniProt P31645); conditions: 1.0E-06 M, read-out: % Inhibition of Control Specific Binding (1st, 2nd, Mean)
# T1 construct: Eurofins Discovery (Cerep, France) SafetyScreen87 panel
# T1 sequence (P31645 whole entry): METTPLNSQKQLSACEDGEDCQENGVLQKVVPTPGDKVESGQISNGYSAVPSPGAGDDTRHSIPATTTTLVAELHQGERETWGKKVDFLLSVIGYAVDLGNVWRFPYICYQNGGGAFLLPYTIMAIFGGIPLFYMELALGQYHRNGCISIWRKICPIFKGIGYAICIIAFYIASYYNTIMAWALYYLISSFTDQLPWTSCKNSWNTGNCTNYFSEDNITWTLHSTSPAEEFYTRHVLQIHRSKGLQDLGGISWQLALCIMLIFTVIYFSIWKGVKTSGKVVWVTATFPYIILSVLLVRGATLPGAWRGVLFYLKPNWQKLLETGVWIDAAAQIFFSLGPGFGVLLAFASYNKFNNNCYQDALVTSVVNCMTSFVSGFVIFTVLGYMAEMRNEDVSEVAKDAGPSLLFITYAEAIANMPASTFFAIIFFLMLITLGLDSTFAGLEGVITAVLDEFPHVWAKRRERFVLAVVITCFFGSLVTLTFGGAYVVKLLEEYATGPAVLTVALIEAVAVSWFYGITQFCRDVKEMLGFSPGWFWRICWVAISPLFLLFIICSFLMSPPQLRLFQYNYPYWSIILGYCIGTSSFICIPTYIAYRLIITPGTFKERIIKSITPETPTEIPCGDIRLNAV
# Description: (§1) The possibility of KDS12025 on kinase off-target, the KINOMEscan panel of scanEDGE assay was conducted in DiscoverX (CA, USA) using a site-directed competition binding with the test compounds. The assay results are given in Supplementary Table 4 and experimental information is available on the DiscoverX web page (www.discoverx.com). Moreover, the Delta SafetyScreen87 panel assay was conducted in Eurofins Discovery (Cerep, France). The assay results are given in Supplementary Table 5 and experimental information is available on the DiscoverX web page (https://www.eurofinsdiscoveryservices.com).
# [2] = molecular target: T2, A2A (h) (agonist radioligand) (Homo sapiens, UniProt P29274); conditions: 1.0E-06 M, read-out: % Inhibition of Control Specific Binding (1st, 2nd, Mean)
# T2 construct: purchased DiscoverX KINOMEscan scanEDGE; Eurofins Cerep SafetyScreen87
# T2 sequence (P29274 whole entry): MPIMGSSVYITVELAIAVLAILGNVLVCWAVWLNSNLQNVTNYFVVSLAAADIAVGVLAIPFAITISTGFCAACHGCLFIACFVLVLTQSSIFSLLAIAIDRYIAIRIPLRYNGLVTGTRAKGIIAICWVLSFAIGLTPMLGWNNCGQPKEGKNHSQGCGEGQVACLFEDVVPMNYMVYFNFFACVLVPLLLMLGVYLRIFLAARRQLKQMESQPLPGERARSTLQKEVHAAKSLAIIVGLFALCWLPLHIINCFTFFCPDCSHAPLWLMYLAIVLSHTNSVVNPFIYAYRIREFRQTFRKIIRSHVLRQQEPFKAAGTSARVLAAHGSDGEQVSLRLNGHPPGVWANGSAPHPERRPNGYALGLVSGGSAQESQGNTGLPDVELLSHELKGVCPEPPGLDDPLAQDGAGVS
# Description: as §1
# [3] = tested on: AMPA (agonist radioligand); conditions: 1.0E-06 M, read-out: % Inhibition of Control Specific Binding (1st, 2nd, Mean)
# Description: as §1
# [4] = molecular target: T3, AR(h) (agonist radioligand) (Homo sapiens, UniProt P10275, T878A); conditions: 1.0E-06 M; mean; read-out: % Inhibition of Control Specific Binding (1st, 2nd, Mean)
# T3 construct: purchased DiscoverX KINOMEscan scanEDGE; Eurofins Cerep SafetyScreen87
# Description: as §1
# [5] = molecular target: T4, AT1 (h) (antagonist radioligand) (Homo sapiens, UniProt P30556); conditions: 1.0E-06 M, read-out: % Inhibition of Control Specific Binding (1st, 2nd, Mean)
# T4 construct: purchased DiscoverX KINOMEscan scanEDGE; Eurofins Cerep SafetyScreen87
# T4 sequence (P30556 whole entry): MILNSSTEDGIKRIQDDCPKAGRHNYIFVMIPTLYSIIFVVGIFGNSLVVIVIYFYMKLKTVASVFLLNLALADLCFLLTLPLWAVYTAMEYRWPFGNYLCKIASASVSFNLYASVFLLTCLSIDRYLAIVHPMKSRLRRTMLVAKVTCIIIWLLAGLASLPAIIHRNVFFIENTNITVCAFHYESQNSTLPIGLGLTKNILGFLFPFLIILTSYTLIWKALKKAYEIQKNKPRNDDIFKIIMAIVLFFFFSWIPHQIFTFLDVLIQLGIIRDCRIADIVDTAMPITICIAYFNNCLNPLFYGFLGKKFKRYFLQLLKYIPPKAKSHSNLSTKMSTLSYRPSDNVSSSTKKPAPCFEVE
# Description: as §1
# [6] = molecular target: T5, CB1 (h) (agonist radioligand) (Homo sapiens, UniProt P21554); conditions: 1.0E-06 M, read-out: % Inhibition of Control Specific Binding (1st, 2nd, Mean)
# T5 construct: purchased DiscoverX KINOMEscan scanEDGE; Eurofins Cerep SafetyScreen87
# T5 sequence (P21554 whole entry): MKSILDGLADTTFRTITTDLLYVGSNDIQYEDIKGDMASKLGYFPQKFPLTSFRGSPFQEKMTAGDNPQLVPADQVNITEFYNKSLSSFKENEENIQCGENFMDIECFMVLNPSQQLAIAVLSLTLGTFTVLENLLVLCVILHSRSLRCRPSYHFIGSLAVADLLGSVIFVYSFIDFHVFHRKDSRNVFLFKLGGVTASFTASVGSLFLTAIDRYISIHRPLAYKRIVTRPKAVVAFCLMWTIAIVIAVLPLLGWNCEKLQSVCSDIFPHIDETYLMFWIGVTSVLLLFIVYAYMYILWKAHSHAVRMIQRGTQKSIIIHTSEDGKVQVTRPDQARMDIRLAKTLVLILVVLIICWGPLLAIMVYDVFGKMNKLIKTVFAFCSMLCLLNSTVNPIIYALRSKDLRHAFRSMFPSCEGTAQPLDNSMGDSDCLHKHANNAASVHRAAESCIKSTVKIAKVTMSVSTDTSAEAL
# Description: as §1
# [7] = molecular target: T6, CCK1 (CCKA) (h) (agonist radioligand) (Homo sapiens, UniProt P32238); conditions: 1.0E-06 M; read-out: % Inhibition of Control Specific Binding (1st, 2nd, Mean)
# T6 construct: purchased DiscoverX KINOMEscan scanEDGE; Eurofins Cerep SafetyScreen87
# Description: as §1
# [8] = molecular target: T7, CCK2 (CCKB) (h) (agonist radioligand) (Homo sapiens, UniProt P32239)
# T7 construct: purchased DiscoverX KINOMEscan scanEDGE; Eurofins Cerep SafetyScreen87
# Description: as §1
# [9] = tested on: Ca2+ channel (L, dihydropyridine site) (antagonist radioligand); conditions: 1.0E-06 M, read-out: % Inhibition of Control Specific Binding (1st, 2nd, Mean)
# Description: as §1
# [10] = tested on: Ca2+ channel (L, diltiazem site) (benzothiazepines) (antagonist radioligand); conditions: 1.0E-06 M, read-out: % Inhibition of Control Specific Binding (1st, 2nd, Mean)
# Description: as §1
# [11] = tested on: Cl- channel (GABA-gated) (TBOB site) (antagonist radioligand); conditions: 1.0E-06 M, read-out: % Inhibition of Control Specific Binding (1st, 2nd, Mean)
# Description: as §1
# [12] = molecular target: T8, D1 (h) (antagonist radioligand) (Homo sapiens, UniProt P21728); conditions: 1.0E-06 M, read-out: % Inhibition of Control Specific Binding (1st, 2nd, Mean)
# T8 construct: purchased DiscoverX KINOMEscan scanEDGE; Eurofins Cerep SafetyScreen87
# T8 sequence (P21728 whole entry): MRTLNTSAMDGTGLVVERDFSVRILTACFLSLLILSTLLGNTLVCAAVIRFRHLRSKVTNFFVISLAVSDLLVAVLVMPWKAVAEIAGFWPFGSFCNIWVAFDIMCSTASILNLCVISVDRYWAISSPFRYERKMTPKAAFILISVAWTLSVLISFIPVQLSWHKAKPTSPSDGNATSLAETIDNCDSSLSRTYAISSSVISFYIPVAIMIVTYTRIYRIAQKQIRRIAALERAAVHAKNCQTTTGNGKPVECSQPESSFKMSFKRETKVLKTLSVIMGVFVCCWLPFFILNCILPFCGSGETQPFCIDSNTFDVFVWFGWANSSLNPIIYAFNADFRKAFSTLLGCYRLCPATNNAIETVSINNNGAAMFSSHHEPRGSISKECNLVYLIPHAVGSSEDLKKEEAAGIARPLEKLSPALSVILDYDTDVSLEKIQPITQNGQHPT
# Description: as §1
# [13] = molecular target: T9, ETA (h) (agonist radioligand) (Homo sapiens, UniProt P25101)
# T9 construct: purchased DiscoverX KINOMEscan scanEDGE; Eurofins Cerep SafetyScreen87
# Description: as §1
# [14] = molecular target: T10, Estrogen ER alpha (h) (agonist radioligand) (Homo sapiens, UniProt P03372); conditions: 1.0E-06 M; mean; read-out: % Inhibition of Control Specific Binding (1st, 2nd, Mean)
# T10 construct: purchased DiscoverX KINOMEscan scanEDGE; Eurofins Cerep SafetyScreen87
# Description: as §1
# [15] = molecular target: T11, GABAB(1b) (h) (antagonist radioligand) (Homo sapiens, UniProt Q9UBS5); conditions: 1.0E-06 M, read-out: % Inhibition of Control Specific Binding (1st, 2nd, Mean)
# T11 construct: purchased DiscoverX KINOMEscan scanEDGE; Eurofins Cerep SafetyScreen87
# T11 sequence (Q9UBS5 1-844 isoform Q9UBS5-2): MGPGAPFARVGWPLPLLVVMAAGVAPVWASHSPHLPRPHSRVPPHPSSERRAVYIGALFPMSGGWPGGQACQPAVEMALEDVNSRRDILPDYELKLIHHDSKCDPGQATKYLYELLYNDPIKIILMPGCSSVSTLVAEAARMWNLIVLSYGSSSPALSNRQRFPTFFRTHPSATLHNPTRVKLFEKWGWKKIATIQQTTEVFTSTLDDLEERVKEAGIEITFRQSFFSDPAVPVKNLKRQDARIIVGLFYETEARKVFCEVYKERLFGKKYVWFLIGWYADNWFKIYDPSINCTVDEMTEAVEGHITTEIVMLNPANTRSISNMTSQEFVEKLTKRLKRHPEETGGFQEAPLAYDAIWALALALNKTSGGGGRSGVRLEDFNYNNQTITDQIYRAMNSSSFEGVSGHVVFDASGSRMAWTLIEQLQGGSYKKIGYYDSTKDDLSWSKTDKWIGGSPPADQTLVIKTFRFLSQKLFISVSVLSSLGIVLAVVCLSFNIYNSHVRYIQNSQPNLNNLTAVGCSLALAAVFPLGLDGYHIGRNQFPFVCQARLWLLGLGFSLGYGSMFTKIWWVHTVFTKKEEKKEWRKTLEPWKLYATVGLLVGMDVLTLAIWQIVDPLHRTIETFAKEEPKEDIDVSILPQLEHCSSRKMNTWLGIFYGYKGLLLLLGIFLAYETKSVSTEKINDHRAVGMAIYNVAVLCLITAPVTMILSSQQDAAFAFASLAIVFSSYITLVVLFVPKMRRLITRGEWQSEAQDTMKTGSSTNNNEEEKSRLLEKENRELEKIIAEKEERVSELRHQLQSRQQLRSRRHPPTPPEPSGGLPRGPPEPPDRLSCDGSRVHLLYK
# Description: as §1
# [16] = molecular target: T12, GR (h) (agonist radioligand) (Homo sapiens, UniProt P04150); conditions: 1.0E-06 M; mean; read-out: % Inhibition of Control Specific Binding (1st, 2nd, Mean)
# T12 construct: purchased DiscoverX KINOMEscan scanEDGE; Eurofins Cerep SafetyScreen87
# Description: as §1
# [17] = molecular target: T13, H2 (h) (antagonist radioligand) (Homo sapiens, UniProt P25021); conditions: read-out: % Inhibition of Control Specific Binding (1st, 2nd, Mean); 1.0E-06 M
# T13 construct: purchased DiscoverX KINOMEscan scanEDGE; Eurofins Cerep SafetyScreen87
# Description: as §1
# [18] = molecular target: T14, M2 (h) (antagonist radioligand) (Homo sapiens, UniProt P08172); conditions: 1.0E-06 M; mean; read-out: % Inhibition of Control Specific Binding (1st, 2nd, Mean)
# T14 construct: purchased DiscoverX KINOMEscan scanEDGE; Eurofins Cerep SafetyScreen87
# Description: as §1
# [19] = molecular target: T15, M4 (h) (antagonist radioligand) (Homo sapiens, UniProt P08173); conditions: 1.0E-06 M; mean; read-out: % Inhibition of Control Specific Binding (1st, 2nd, Mean)
# T15 construct: purchased DiscoverX KINOMEscan scanEDGE; Eurofins Cerep SafetyScreen87
# Description: as §1
# [20] = molecular target: T16, MAO-A (antagonist radioligand) (Rattus norvegicus, UniProt P21396); conditions: 1.0E-06 M; mean; read-out: % Inhibition of Control Specific Binding (1st, 2nd, Mean)
# T16 construct: purchased DiscoverX KINOMEscan scanEDGE; Eurofins Cerep SafetyScreen87
# Description: as §1
# [21] = molecular target: T17, MC1 (agonist radioligand) (Mus musculus, UniProt Q01727); conditions: 1.0E-06 M; mean; read-out: % Inhibition of Control Specific Binding (1st, 2nd, Mean)
# T17 construct: purchased DiscoverX KINOMEscan scanEDGE; Eurofins Cerep SafetyScreen87
# Description: as §1
# [22] = molecular target: T18, MC4 (h) (agonist radioligand) (Homo sapiens, UniProt P32245); conditions: 1.0E-06 M; read-out: % Inhibition of Control Specific Binding (1st, 2nd, Mean)
# T18 construct: purchased DiscoverX KINOMEscan scanEDGE; Eurofins Cerep SafetyScreen87
# Description: as §1
# [23] = molecular target: T19, N muscle-type (h) (antagonist radioligand) (Homo sapiens, UniProt P02708+P07510+Q07001); conditions: 1.0E-06 M; mean; read-out: % Inhibition of Control Specific Binding (1st, 2nd, Mean)
# T19 construct: purchased DiscoverX KINOMEscan scanEDGE; Eurofins Cerep SafetyScreen87
# Description: as §1
# [24] = tested on: PCP (antagonist radioligand); conditions: 1.0E-06 M; mean; read-out: % Inhibition of Control Specific Binding (1st, 2nd, Mean)
# Description: as §1
# [25] = molecular target: T20, Potassium Channel hERG (human)- [3H] Dofetilide (Homo sapiens, UniProt Q12809); conditions: 1.0E-06 M, read-out: % Inhibition of Control Specific Binding (1st, 2nd, Mean)
# T20 construct: Eurofins Discovery (Cerep, France) SafetyScreen87 panel
# Description: as §1
# [26] = molecular target: T21, V1a (h) (agonist radioligand) (Homo sapiens, UniProt P37288); conditions: 1.0E-06 M; mean; read-out: % Inhibition of Control Specific Binding (1st, 2nd, Mean)
# T21 construct: purchased DiscoverX KINOMEscan scanEDGE; Eurofins Cerep SafetyScreen87
# Description: as §1
# [27] = molecular target: T22, alpha 1B (h) (antagonist radioligand) (Homo sapiens, UniProt P35368); conditions: 1.0E-06 M, read-out: % Inhibition of Control Specific Binding (1st, 2nd, Mean)
# T22 construct: purchased DiscoverX KINOMEscan scanEDGE; Eurofins Cerep SafetyScreen87
# T22 sequence (P35368 whole entry): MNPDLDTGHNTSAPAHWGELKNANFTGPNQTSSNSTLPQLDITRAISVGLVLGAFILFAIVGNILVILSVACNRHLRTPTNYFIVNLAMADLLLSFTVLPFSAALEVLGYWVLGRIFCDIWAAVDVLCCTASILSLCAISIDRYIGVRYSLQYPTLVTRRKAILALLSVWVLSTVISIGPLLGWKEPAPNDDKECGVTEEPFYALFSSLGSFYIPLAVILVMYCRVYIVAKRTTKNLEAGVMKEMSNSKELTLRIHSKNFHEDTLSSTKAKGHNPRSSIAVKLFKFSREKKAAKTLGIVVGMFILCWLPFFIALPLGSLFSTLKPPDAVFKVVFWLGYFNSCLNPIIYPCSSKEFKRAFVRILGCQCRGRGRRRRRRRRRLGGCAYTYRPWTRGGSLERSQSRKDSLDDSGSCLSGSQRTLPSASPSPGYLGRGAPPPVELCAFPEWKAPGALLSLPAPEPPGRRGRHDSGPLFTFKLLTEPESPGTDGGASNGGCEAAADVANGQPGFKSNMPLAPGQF
# Description: as §1
# [28] = molecular target: T23, alpha 1D (h) (antagonist radioligand) (Homo sapiens, UniProt P25100); conditions: 1.0E-06 M, read-out: % Inhibition of Control Specific Binding (1st, 2nd, Mean)
# T23 construct: purchased DiscoverX KINOMEscan scanEDGE; Eurofins Cerep SafetyScreen87
# T23 sequence (P25100 whole entry): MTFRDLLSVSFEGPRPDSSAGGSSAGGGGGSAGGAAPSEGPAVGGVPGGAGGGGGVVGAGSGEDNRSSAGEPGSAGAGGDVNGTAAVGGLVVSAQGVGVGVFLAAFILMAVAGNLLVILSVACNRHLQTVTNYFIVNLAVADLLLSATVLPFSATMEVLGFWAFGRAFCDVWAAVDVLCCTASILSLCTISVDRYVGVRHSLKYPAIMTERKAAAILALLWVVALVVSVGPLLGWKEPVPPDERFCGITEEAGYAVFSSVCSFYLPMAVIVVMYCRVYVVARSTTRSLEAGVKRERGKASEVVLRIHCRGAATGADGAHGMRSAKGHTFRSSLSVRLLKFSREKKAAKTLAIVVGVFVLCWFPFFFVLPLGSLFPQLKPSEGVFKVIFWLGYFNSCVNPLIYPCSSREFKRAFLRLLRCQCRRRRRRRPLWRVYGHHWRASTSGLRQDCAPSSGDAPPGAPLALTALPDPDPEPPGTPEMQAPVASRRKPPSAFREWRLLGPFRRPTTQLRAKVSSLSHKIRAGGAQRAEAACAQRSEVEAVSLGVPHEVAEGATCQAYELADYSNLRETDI
# Description: as §1
# [29] = tested on: kainate (agonist radioligand); conditions: 1.0E-06 M, read-out: % Inhibition of Control Specific Binding (1st, 2nd, Mean)
# Description: as §1
# [30] = molecular target: T24, mu (MOP) (h) (agonist radioligand) (Homo sapiens, UniProt P35372); conditions: 1.0E-06 M; mean; read-out: % Inhibition of Control Specific Binding (1st, 2nd, Mean)
# T24 construct: purchased DiscoverX KINOMEscan scanEDGE; Eurofins Cerep SafetyScreen87
# Description: as §1
# [31] = molecular target: T25, norepinephrine transporter (h) (antagonist radioligand) (Homo sapiens, UniProt P23975); conditions: 1.0E-06 M, read-out: % Inhibition of Control Specific Binding (1st, 2nd, Mean)
# T25 construct: Eurofins Discovery (Cerep, France) SafetyScreen87 panel
# T25 sequence (P23975 whole entry): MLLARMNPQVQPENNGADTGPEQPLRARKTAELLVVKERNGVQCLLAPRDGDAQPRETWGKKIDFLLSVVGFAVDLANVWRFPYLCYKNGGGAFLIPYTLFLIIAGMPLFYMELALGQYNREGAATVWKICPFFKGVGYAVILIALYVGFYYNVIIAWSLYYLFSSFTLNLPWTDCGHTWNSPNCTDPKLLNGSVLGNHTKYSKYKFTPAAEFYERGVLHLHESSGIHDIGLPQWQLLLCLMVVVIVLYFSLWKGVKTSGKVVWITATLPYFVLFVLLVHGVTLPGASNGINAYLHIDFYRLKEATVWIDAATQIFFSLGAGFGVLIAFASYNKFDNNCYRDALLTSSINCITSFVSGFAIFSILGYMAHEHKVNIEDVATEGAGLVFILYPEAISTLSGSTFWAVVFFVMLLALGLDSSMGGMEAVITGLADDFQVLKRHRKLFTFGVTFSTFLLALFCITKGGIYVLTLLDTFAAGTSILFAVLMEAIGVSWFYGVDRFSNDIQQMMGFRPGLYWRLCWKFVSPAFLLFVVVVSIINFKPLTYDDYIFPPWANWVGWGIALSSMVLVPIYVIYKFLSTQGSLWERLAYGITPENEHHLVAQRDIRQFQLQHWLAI
# Description: as §1
# [32] = 1.0E-06 M; read-out: % Inhibition of Control Specific Binding (1st, 2nd, Mean)
# [33] = read-out: % Inhibition of Control Specific Binding (1st, 2nd, Mean); 1.0E-06 M
smiles,measurement,setting,value
"CNc1ccc(NCCc2ccccc2OC)cc1.Cl [KDS12025, N^1-(2-methoxyphenethyl)-N^4-methylbenzene-1,4-diamine hydrochloride salt]",activity,[1]; mean,54.6%
same,activity,[1],62.9% and 46.4%
same,activity,[2]; mean,90.7%
same,activity,[2],90.3% and 91.2%
same,activity,[3]; mean,100%
same,activity,[3],98% and 103%
same,activity,[4],90.9%
same,activity,[5]; mean,87.4%
same,activity,[5],82.3% and 92.5%
same,activity,[6]; mean,80%
same,activity,[6],81.7% and 78.4%
same,activity,[7],104%
same,activity,[8]; [32],97%
same,activity,[8]; [33],107%
same,activity,[9]; mean,129%
same,activity,[9],138% and 121%
same,activity,[10]; mean,84.9%
same,activity,[10],88.1% and 81.7%
same,activity,[11]; mean,96.4%
same,activity,[11],104% and 89%
same,activity,[12]; mean,97.5%
same,activity,[12],91.1% and 104%
same,activity,[13]; [32],108%
same,activity,[13]; [33],90.8%
same,activity,[14],95.3%
same,activity,[15]; mean,104%
same,activity,[15],106% and 101%
same,activity,[16],104%
same,activity,[17],94.2%
same,activity,[18],107%
same,activity,[19],102%
same,activity,[20],100%
same,activity,[21],109%
same,activity,[22],88.7%
same,activity,[23],74.3%
same,activity,[24],92%
same,activity,[25]; mean,68.5%
same,activity,[25],66.8%
same,activity,[26],110%
same,activity,[27]; mean,65.4%
same,activity,[27],61.4% and 69.4%
same,activity,[28]; mean,75.8%
same,activity,[28],75.3% and 76.3%
same,activity,[29]; mean,97.4%
same,activity,[29],76.8% and 118%
same,activity,[30],84.5%
same,activity,[31]; mean,93.3%
same,activity,[31],89.5%
